Assay results as given in patent US11304949B2, “Treatment of hidradenitis suppurativa using JAK inhibitors” (Incyte Corporation, priority 2018, dated 2022).
pIC50: −log10 of the molar value.

Legend:
[1] = system: Transformed human keratinocyte (HaCaT) cells stimulated with TNFα and IFNγ; assay: JAK inhibitors in TNFα/IFNγ stimulated keratinocytes, inflammatory mediators in media (ProCarta Multiplex Immunoassay); conditions: mean ± 1 standard error
[2] = system: human JAK1 (a.a. 837-1142); assay: In vitro JAK kinase assay (HTRF), JAK1; type: biochemical; conditions: IC50 ratio at 1 mM ATP
[3] = molecular target: human JAK1 (a.a. 837-1142) (Homo sapiens, UniProt P23458); assay: In vitro JAK kinase assay (HTRF), JAK1; type: biochemical; conditions: 1 mM ATP
[4] = system: Transformed human keratinocyte (HaCaT) cells stimulated with TNFα and IFNγ; assay: JAK inhibitors in TNFα/IFNγ stimulated keratinocytes, gene expression (QuantiGene Plex); conditions: 24 hours, normalized to HPRT1, mean ± standard error
[5] = TNFα (25 ng/mL) and IFNγ (25 ng/mL) stimulation, drug 25 nM
[6] = TNFα (25 ng/mL) and IFNγ (25 ng/mL) stimulation, drug 50 nM
[7] = TNFα (25 ng/mL) and IFNγ (25 ng/mL) stimulation, drug 100 nM
[8] = TNFα (25 ng/mL) and IFNγ (25 ng/mL) stimulation, drug 200 nM
[9] = TNFα (25 ng/mL) and IFNγ (25 ng/mL), drug 25 nM
[10] = TNFα (25 ng/mL) and IFNγ (25 ng/mL), drug 50 nM
[11] = TNFα (25 ng/mL) and IFNγ (25 ng/mL), drug 100 nM
[12] = TNFα (25 ng/mL) and IFNγ (25 ng/mL), drug 200 nM

C[C@@H](O)c1nc2cnc3ccsc3c2n1[C@H]1CC[C@H](CC#N)OC1 [Compound 5, ((2R,5S)-5-{2-[(1R)-1-hydroxyethyl]-1H-imidazo[4,5-d]thieno[3,2-b]pyridin-1-yl}tetrahydro-2H-pyran-2-yl)acetonitrile]
IL-1α concentration in media [1, 5]: 6.8 ± 0.39 pg/mL
IL-6 concentration in media [1, 5]: 743.07 ± 36.3 pg/mL
IP-10/CXCL10 concentration in media [1, 5]: 3903.67 ± 366.97 pg/mL
MIP1α concentration in media [1, 5]: 102.06 ± 4.18 pg/mL
RANTES concentration in media [1, 5]: 237.57 ± 17.46 pg/mL
IL-1α concentration in media [1, 6]: 6.76 ± 0.4 pg/mL
IL-6 concentration in media [1, 6]: 698.04 ± 29.79 pg/mL
IP-10/CXCL10 concentration in media [1, 6]: 3998.62 ± 456.34 pg/mL
MIP1α concentration in media [1, 6]: 96.35 ± 3.57 pg/mL
RANTES concentration in media [1, 6]: 237.55 ± 21.78 pg/mL
IL-1α concentration in media [1, 7]: 6.92 ± 0.4 pg/mL
IL-6 concentration in media [1, 7]: 703.99 ± 42.22 pg/mL
IP-10/CXCL10 concentration in media [1, 7]: 4100.26 ± 502.48 pg/mL
MIP1α concentration in media [1, 7]: 96.22 ± 3.58 pg/mL
RANTES concentration in media [1, 7]: 241.39 ± 22.79 pg/mL
IL-1α concentration in media [1, 8]: 6.3 ± 0.35 pg/mL
IL-6 concentration in media [1, 8]: 646.2 ± 32.46 pg/mL
IP-10/CXCL10 concentration in media [1, 8]: 4407.56 ± 645.63 pg/mL
MIP1α concentration in media [1, 8]: 88.49 ± 5.06 pg/mL
RANTES concentration in media [1, 8]: 238.51 ± 23.12 pg/mL
IL-1α concentration in media ([1]; no stimulation, drug 200 nM): 0.31 ± 0.04 pg/mL
IL-6 concentration in media ([1]; no stimulation, drug 200 nM): 28.84 ± 1.89 pg/mL
IP-10/CXCL10 concentration in media ([1]; no stimulation, drug 200 nM): 20.39 ± 0.57 pg/mL
MIP1α concentration in media ([1]; no stimulation, drug 200 nM): 3.11 ± 0.28 pg/mL
RANTES concentration in media ([1]; no stimulation, drug 200 nM): 9.51 ± 0.56 pg/mL
JAK2/JAK1 [2]: >10
pIC50 [3]: > 7.00
IL-1α MFI [4, 9]: 1269.66 ± 50.59
IL-6 MFI [4, 9]: 132.28 ± 7.41
JAK1 MFI [4, 9]: 200.4 ± 9.84
JAK2 MFI [4, 9]: 108.89 ± 3.25
JAK3 MFI [4, 9]: 0.97 ± 0.18
STAT1 MFI [4, 9]: 3164.74 ± 242.35
STAT3 MFI [4, 9]: 1572.76 ± 65.5
STAT4 MFI [4, 9]: 5.4 ± 0.45
STAT5A MFI [4, 9]: 20.12 ± 1.29
STAT6 MFI [4, 9]: 1042.76 ± 29.23
TYK2 MFI [4, 9]: 283.93 ± 8.16
IL-1α MFI [4, 10]: 1336.95 ± 50.97
IL-6 MFI [4, 10]: 137.61 ± 5.87
JAK1 MFI [4, 10]: 210.52 ± 7.73
JAK2 MFI [4, 10]: 106.83 ± 5.94
JAK3 MFI [4, 10]: 0.99 ± 0.20
STAT1 MFI [4, 10]: 3017.08 ± 167.96
STAT3 MFI [4, 10]: 1543.4 ± 58.65
STAT4 MFI [4, 10]: 6.1 ± 0.36
STAT5A MFI [4, 10]: 22.69 ± 1.71
STAT6 MFI [4, 10]: 1046.46 ± 29.12
TYK2 MFI [4, 10]: 307.36 ± 14.87
IL-1α MFI [4, 11]: 1244.96 ± 41.03
IL-6 MFI [4, 11]: 122.46 ± 5.35
JAK1 MFI [4, 11]: 200.25 ± 8.15
JAK2 MFI [4, 11]: 102.64 ± 3.52
JAK3 MFI [4, 11]: 1.01 ± 0.17
STAT1 MFI [4, 11]: 2999.87 ± 197.86
STAT3 MFI [4, 11]: 1549.17 ± 89.41
STAT4 MFI [4, 11]: 5.83 ± 0.34
STAT5A MFI [4, 11]: 19.54 ± 1.34
STAT6 MFI [4, 11]: 985.1 ± 39.79
TYK2 MFI [4, 11]: 280.63 ± 10.46
IL-1α MFI [4, 12]: 1163.14 ± 26.71
IL-6 MFI [4, 12]: 119.49 ± 4.42
JAK1 MFI [4, 12]: 190.53 ± 7.68
JAK2 MFI [4, 12]: 92.21 ± 2.9
JAK3 MFI [4, 12]: 0.86 ± 0.16
STAT1 MFI [4, 12]: 3161.66 ± 135.8
STAT3 MFI [4, 12]: 1570.19 ± 51.51
STAT4 MFI [4, 12]: 5.42 ± 0.52
STAT5A MFI [4, 12]: 18.33 ± 1.83
STAT6 MFI [4, 12]: 1013.25 ± 17.15
TYK2 MFI [4, 12]: 283.28 ± 10.88
IL-1α MFI ([4]; no stimulation, drug 200 nM): 92.67 ± 5.54
IL-6 MFI ([4]; no stimulation, drug 200 nM): 5.15 ± 0.31
JAK1 MFI ([4]; no stimulation, drug 200 nM): 177.97 ± 14.91
JAK2 MFI ([4]; no stimulation, drug 200 nM): 25.67 ± 1.03
JAK3 MFI ([4]; no stimulation, drug 200 nM): 0.71 ± 0.15
STAT1 MFI ([4]; no stimulation, drug 200 nM): 554.64 ± 11.36
STAT3 MFI ([4]; no stimulation, drug 200 nM): 750.90 ± 27.68
STAT4 MFI ([4]; no stimulation, drug 200 nM): 4.32 ± 0.53
STAT5A MFI ([4]; no stimulation, drug 200 nM): 1.99 ± 0.51
STAT6 MFI ([4]; no stimulation, drug 200 nM): 777.03 ± 29.31
TYK2 MFI ([4]; no stimulation, drug 200 nM): 220.78 ± 12.01
